What was measured:
EGFR L858R = target: T1, EGFR L858R (Homo sapiens, UniProt P00533, L858R); assay: Biochemical EGFR inhibition assay (Caliper mobility shift), EGFR L858R; conditions: biochemical Caliper mobility shift assay, EGFR L858R enzyme; read-out: Enz EGFR L858R IC50
T1 construct: purchased SignalChem E10-122BG
How it was run: (§1)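 Apparent IC50 from Caliper separation of phospho-peptide from substrate. Conditions: 2.5 µM 5-FAM peptide, 1.0 mM ATP or ATP Km, pH 7.5 HEPES buffer, room temperature, 10–20% conversion, EDTA stop.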

[1] = target: intracellular phosphorylation of EGFR (Tyr1068) in PC-9 cells (Homo sapiens, UniProt P00533, DEL746-750); assay: PC-9 pEGFR AlphaLISA assay; format: cell-based; conditions: 4 hours incubation, read-out: Phos EGFR PC9 IC50
How it was run: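 PC-9 cells (EGFR del746-750) in phenol-free DMEM/10% FBS, adhered overnight, then exposed to 10-point 4-fold compound dilutions for 4 h at 37 °C. Lysates assayed for pEGFR Tyr1068 by AlphaLISA SureFire Ultra; IC50 from percent pEGFR inhibition vs log concentration.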

EGFR (d746-750) = target: T2, EGFR (d746-750) (Homo sapiens, UniProt P00533, DEL746-750); assay: Biochemical EGFR inhibition assay (Caliper mobility shift), EGFR (d746-750); conditions: biochemical Caliper mobility shift assay, EGFR Exon 19-del enzyme; read-out: Enz EGFR Exon 19-del IC50
T2 construct: purchased SignalChem E10-122JG
How it was run: as §1

T1 sequence (P00533 25-1210 L858R): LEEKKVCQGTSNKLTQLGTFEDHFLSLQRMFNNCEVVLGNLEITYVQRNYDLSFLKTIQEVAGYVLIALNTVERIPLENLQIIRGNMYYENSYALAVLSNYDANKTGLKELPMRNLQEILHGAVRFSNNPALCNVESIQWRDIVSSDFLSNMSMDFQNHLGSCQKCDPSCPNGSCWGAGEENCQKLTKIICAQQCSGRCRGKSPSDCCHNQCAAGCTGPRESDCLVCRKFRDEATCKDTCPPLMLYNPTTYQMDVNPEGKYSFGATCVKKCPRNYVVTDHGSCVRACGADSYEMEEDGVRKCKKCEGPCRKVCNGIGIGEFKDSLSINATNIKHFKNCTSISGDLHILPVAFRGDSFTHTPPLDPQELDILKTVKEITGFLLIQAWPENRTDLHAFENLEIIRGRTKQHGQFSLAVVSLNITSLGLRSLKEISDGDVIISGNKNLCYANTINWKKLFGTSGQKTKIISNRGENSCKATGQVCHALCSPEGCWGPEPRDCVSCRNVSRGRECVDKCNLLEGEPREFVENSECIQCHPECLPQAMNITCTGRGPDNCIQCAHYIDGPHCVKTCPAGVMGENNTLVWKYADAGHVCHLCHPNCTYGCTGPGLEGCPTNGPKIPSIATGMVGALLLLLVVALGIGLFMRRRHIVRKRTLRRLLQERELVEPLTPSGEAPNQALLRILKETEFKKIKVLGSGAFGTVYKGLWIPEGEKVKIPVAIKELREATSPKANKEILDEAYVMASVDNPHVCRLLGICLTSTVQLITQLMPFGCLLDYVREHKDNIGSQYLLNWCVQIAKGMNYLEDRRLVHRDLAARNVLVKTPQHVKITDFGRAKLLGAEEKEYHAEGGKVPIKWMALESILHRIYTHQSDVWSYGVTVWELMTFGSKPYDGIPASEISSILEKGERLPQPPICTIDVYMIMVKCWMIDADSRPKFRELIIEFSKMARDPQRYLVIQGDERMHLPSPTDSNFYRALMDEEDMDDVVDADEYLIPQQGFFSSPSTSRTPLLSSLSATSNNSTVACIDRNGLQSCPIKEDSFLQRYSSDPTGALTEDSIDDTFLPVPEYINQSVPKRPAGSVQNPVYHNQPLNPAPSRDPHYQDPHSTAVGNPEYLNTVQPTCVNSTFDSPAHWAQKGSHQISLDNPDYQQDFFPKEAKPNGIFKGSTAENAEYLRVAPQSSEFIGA
T2 sequence (P00533 with tags, fused parts or gaps DEL746-750 limits assumed): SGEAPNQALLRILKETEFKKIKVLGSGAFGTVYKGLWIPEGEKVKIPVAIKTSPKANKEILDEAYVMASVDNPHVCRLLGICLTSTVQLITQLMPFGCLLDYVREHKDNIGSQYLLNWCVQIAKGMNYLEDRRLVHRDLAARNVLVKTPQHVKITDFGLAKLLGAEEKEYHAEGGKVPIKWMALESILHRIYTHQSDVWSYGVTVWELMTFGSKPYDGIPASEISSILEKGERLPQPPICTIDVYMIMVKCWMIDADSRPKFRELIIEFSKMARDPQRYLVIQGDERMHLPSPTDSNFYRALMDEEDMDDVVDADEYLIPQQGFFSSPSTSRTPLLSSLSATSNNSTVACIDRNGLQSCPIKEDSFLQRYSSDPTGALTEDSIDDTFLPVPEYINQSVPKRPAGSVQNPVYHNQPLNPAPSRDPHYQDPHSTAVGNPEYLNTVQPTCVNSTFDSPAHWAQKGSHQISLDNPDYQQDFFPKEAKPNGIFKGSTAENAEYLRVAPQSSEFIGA
Sequence of intracellular phosphorylation of EGFR (Tyr1068) in PC-9 cells (P00533 with tags, fused parts or gaps DEL746-750): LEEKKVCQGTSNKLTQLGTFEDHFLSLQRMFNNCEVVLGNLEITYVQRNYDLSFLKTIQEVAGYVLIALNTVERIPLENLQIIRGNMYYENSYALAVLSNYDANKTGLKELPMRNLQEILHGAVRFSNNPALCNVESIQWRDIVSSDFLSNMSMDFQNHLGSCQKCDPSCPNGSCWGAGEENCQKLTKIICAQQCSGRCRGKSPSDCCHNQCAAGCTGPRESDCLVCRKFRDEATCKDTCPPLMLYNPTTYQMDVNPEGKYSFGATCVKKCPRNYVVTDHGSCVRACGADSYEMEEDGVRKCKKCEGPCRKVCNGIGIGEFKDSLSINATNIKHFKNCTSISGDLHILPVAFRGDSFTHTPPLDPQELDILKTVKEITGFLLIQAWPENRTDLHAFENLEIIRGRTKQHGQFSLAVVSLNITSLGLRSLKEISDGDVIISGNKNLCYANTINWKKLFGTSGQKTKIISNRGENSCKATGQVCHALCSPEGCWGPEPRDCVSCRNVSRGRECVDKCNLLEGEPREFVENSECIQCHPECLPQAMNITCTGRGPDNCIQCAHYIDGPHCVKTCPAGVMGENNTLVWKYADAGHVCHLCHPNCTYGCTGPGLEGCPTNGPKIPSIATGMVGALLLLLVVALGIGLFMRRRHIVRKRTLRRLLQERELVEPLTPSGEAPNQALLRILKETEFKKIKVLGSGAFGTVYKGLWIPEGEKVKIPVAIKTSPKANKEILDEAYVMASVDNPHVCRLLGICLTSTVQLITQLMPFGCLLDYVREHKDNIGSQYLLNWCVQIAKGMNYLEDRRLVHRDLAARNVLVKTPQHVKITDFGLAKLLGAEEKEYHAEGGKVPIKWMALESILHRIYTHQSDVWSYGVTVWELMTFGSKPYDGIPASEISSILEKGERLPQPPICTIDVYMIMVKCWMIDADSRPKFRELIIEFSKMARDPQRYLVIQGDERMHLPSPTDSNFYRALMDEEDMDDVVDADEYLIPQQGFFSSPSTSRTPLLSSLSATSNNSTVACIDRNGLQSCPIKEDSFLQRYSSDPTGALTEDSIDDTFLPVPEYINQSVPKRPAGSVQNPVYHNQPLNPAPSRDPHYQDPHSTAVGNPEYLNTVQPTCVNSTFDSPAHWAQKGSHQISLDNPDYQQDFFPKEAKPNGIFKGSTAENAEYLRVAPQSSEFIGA

| Structure (SMILES) | IC50 (EGFR L858R) [nM] | IC50 [1] [nM] | IC50 (EGFR (d746-750)) [nM] |
| --- | --- | --- | --- |
| Cn1cc(-c2cc(O[C@@H]3CC[C@H](O)C3)c3c(Nc4ccc5ncsc5c4)ncnc3c2)cn1 [Example 411, (1S,3R)-3-((4-(benzo[d]thiazol-6-ylamino)-7-(1-methyl-1H-pyrazol-4-yl)quinazolin-5-yl)oxy)cyclopentan-1-ol] | ≤ 10 | ≤ 10 | ≤ 10 |
| C[C@H]1CN(C)CCN1C(=O)Nc1cc2c(Nc3ccc4ncsc4c3)ncnc2cc1-c1ccn(C)n1 [Example 399, (S)-N-(4-(benzo[d]thiazol-6-ylamino)-7-(1-methyl-1H-pyrazol-3-yl)quinazolin-6-yl)-2,4-dimethylpiperazine-1-carboxamide] | ≤ 10 | ≤ 10 | ≤ 10 |
| CC(Oc1cc(-c2cn(C)nc2OC(F)F)cc2ncnc(Nc3ccc4ncsc4c3)c12)C1COC1 (single isomer, unassigned) [Example 173] | ≤ 10 | ≤ 10 | ≤ 10 |
| CN1CC[C@H](Oc2cc(-c3cnn(C)c3)cc3ncnc(Nc4ccc5ncsc5c4)c23)[C@@H](F)C1 (racemic) [Example 343, trans-N-(5-(((3S,4S)-3-fluoro-1-methylpiperidin-4-yl)oxy)-7-(1-methyl-1H-pyrazol-4-yl)quinazolin-4-yl)benzo[d]thiazol-6-amine] | ≤ 10 | ≤ 10 | ≤ 10 |
| COc1nn(C)cc1-c1cc(OC2CC2)c2c(Nc3ccc4ncsc4c3)ncnc2c1 [Example 77, N-(5-cyclopropoxy-7-(3-methoxy-1-methyl-1H-pyrazol-4-yl)quinazolin-4-yl)benzo[d]thiazol-6-amine] | ≤ 10 | ≤ 10 | ≤ 10 |
| CN1CCC(Oc2cc(-c3cn(C)n(C(F)F)c3=O)cc3ncnc(Nc4ccc5ncsc5c4)c23)CC1 [Example A17, 4-(4-(benzo[d]thiazol-6-ylamino)-5-((1-methylpiperidin-4-yl)oxy)quinazolin-7-yl)-2-(difluoromethyl)-1-methyl-1,2-dihydro-3H-pyrazol-3-one] | 10.1 to 50 | 10.1 to 50 | ≤ 10 |
| COc1cc2c(Nc3ccc4ncsc4c3F)ncnc2cc1-c1cn(C)nc1OC [Example 264, 7-fluoro-N-(6-methoxy-7-(3-methoxy-1-methyl-1H-pyrazol-4-yl)quinazolin-4-yl)benzo[d]thiazol-6-amine] | ≤ 10 | 10.1 to 50 | ≤ 10 |
| C[C@H](Oc1cc(N2CCN(C)C2=O)cc2ncnc(Nc3ccc4ncsc4c3)c12)C1COC1 (single isomer, unassigned) [Example 158] | ≤ 10 | 10.1 to 50 | ≤ 10 |
| CN1CCC[C@@H]1COc1cc(-c2cnn(C)c2)cc2ncnc(Nc3ccc4ncsc4c3)c12 [Example 33, (R)-N-(7-(1-methyl-1H-pyrazol-4-yl)-5-((1-methylpyrrolidin-2-yl)methoxy)quinazolin-4-yl)benzo[d]thiazol-6-amine] | ≤ 10 | 10.1 to 50 | ≤ 10 |
| Cn1cc(-c2cc(O[C@H]3COC[C@@H]3O)c3c(Nc4ccc5ncsc5c4)ncnc3c2)cn1 (single isomer, unassigned) [Example A29] | ≤ 10 | 10.1 to 50 | ≤ 10 |
| Cn1cc(-c2cc(OCC3CCOC3)c3c(Nc4ccc5ncsc5c4)ncnc3c2)cn1 (single isomer, unassigned) [Example 41] | ≤ 10 | 10.1 to 50 | ≤ 10 |
| COC[C@@H](C)Oc1cc(N2CCN3CCC[C@@H]3C2)cc2ncnc(Nc3ccc4ncsc4c3)c12 [Example 192, N-(7-((R)-hexahydropyrrolo[1,2-a]pyrazin-2(1H)-yl)-5-(((R)-1-methoxypropan-2-yl)oxy)quinazolin-4-yl)benzo[d]thiazol-6-amine] | ≤ 10 | 10.1 to 50 | ≤ 10 |
| CN(C)C(=O)COc1cc(-c2cnn(C)c2)cc2ncnc(Nc3ccc4ncsc4c3F)c12 [Example 274, 2-((4-((7-fluorobenzo[d]thiazol-6-yl)amino)-7-(1-methyl-1H-pyrazol-4-yl)quinazolin-5-yl)oxy)-N,N-dimethylacetamide] | ≤ 10 | ≤ 10 | ≤ 10 |
| COc1nn(C)cc1-c1cc(O[C@H](C)C2COC2)c2c(Nc3ccc4ncsc4c3)ncnc2c1 (single isomer, unassigned) [Example 170] | ≤ 10 | ≤ 10 | ≤ 10 |
| CN1C[C@H](F)C[C@H](Oc2cc(-c3cnn(C)c3)cc3ncnc(Nc4ccc5ncsc5c4)c23)C1 (single isomer, unassigned) [Example 336] | ≤ 10 | ≤ 10 | ≤ 10 |
| COc1nn(C)cc1-c1cc(O[C@@H]2CN(C)C[C@H]2F)c2c(Nc3ccc4ncsc4c3)ncnc2c1 (racemic) [Example 376, N-(5-(((3S,4S)-4-fluoro-1-methylpyrrolidin-3-yl)oxy)-7-(3-methoxy-1-methyl-1H-pyrazol-4-yl)quinazolin-4-yl)benzo[d]thiazol-6-amine and N-(5-(((3R,4R)-4-fluoro-1-methylpyrrolidin-3-yl)oxy)-7-(3-methoxy-1-methyl-1H-pyrazol-4-yl)quinazolin-4-yl)benzo[d]thiazol-6-amine] | ≤ 10 | 10.1 to 50 | ≤ 10 |
| Cn1cc(-c2cc3ncnc(Nc4ccc5ncsc5c4F)c3cc2OC2CCOC2)cn1 (stereo not drawn) [Example 261, 7-fluoro-N-(7-(1-methyl-1H-pyrazol-4-yl)-6-((tetrahydrofuran-3-yl)oxy)quinazolin-4-yl)benzo[d]thiazol-6-amine] | ≤ 10 | ≤ 10 | ≤ 10 |
| CN(C)C1CCC1Oc1cc(-c2cnn(C)c2)cc2ncnc(Nc3ccc4ncsc4c3)c12 [Example 153, N-(5-((1S,2S)-2-(dimethylamino)cyclobutoxy)-7-(1-methyl-1H-pyrazol-4-yl)quinazolin-4-yl)benzo[d]thiazol-6-amine OR N-(5-((1R,2R)-2-(dimethylamino)cyclobutoxy)-7-(1-methyl-1H-pyrazol-4-yl)quinazolin-4-yl)benzo[d]thiazol-6-amine] | ≤ 10 | 10.1 to 50 | ≤ 10 |
| CO[C@H]1CCN(c2cc(O[C@H](C)C3COC3)c3c(Nc4ccc5ncsc5c4)ncnc3c2)C1 [Example 197, N-(7-((S)-3-methoxypyrrolidin-1-yl)-5-((R)-1-(oxetan-3-yl)ethoxy)quinazolin-4-yl)benzo[d]thiazol-6-amine] | ≤ 10 | ≤ 10 | ≤ 10 |
| C[C@@H]1CN(C)CCN1C(=O)Nc1cc2c(Nc3ccc4ncsc4c3)ncnc2cc1-c1ccn(C)n1 [Example 255, (R)-N-(4-(benzo[d]thiazol-6-ylamino)-7-(1-methyl-1H-pyrazol-3-yl)quinazolin-6-yl)-2,4-dimethylpiperazine-1-carboxamide] | ≤ 10 | ≤ 10 | ≤ 10 |
| COc1nn(C)cc1-c1cc(OC2COC2)c2c(Nc3ccc4ncsc4c3)ncnc2c1 [Example 18, N-(7-(3-methoxy-1-methyl-1H-pyrazol-4-yl)-5-(oxetan-3-yloxy)quinazolin-4-yl)benzo[d]thiazol-6-amine] | ≤ 10 | ≤ 10 | ≤ 10 |
| CC(Oc1cc(-c2cnn(C)c2)cc2ncnc(Nc3ccc4ncsc4c3F)c12)C(=O)N1CCOCC1 (stereo not drawn) [Example 281, 2-((4-((7-fluorobenzo[d]thiazol-6-yl)amino)-7-(1-methyl-1H-pyrazol-4-yl)quinazolin-5-yl)oxy)-1-morpholinopropan-1-one] | ≤ 10 | ≤ 10 | ≤ 10 |
| COc1nn(C)cc1-c1cc(O[C@H]2CN(C)C[C@H]2F)c2c(Nc3ccc4ncsc4c3)ncnc2c1 (single isomer, unassigned) [Example 374] | ≤ 10 | 10.1 to 50 | ≤ 10 |
| CN(C)C[C@@H](Oc1cc(-c2cnn(C)c2)cc2ncnc(Nc3ccc4ncsc4c3)c12)C(F)F (single isomer, unassigned) [Example 151] | ≤ 10 | ≤ 10 | ≤ 10 |
| COc1cn(C)nc1-c1cc(OC2CCN(C)CC2)c2c(Nc3ccc4ncsc4c3F)ncnc2c1 [Example 319, 7-fluoro-N-(7-(4-methoxy-1-methyl-1H-pyrazol-3-yl)-5-((1-methylpiperidin-4-yl)oxy)quinazolin-4-yl)benzo[d]thiazol-6-amine] | 10.1 to 50 | ≤ 10 | ≤ 10 |
| CC(C)N1CCN(c2cc(OC3CCOCC3)c3c(Nc4ccc5ncsc5c4)ncnc3c2)C1=O [Example 194, 1-(4-(benzo[d]thiazol-6-ylamino)-5-((tetrahydro-2H-pyran-4-yl)oxy)quinazolin-7-yl)-3-isopropylimidazolidin-2-one] | ≤ 10 | ≤ 10 | ≤ 10 |
| COc1nn(C)cc1-c1cc(O[C@H]2CNC[C@H]2F)c2c(Nc3ccc4ncsc4c3)ncnc2c1 (racemic) [Example 371, N-(5-(((3S,4R)-4-fluoropyrrolidin-3-yl)oxy)-7-(3-methoxy-1-methyl-1H-pyrazol-4-yl)quinazolin-4-yl)benzo[d]thiazol-6-amine and N-(5-(((3R,4S)-4-fluoropyrrolidin-3-yl)oxy)-7-(3-methoxy-1-methyl-1H-pyrazol-4-yl)quinazolin-4-yl)benzo[d]thiazol-6-amine] | 10.1 to 50 | 10.1 to 50 | ≤ 10 |
